Assay results as given in patent US11020405B2, “Method for prevention or treatment of diabetic complications” (KANGWON NATIONAL UNIVERSITY UNIVERSITY-INDUSTRY COOPERATION …, priority 2017, dated 2021).

Columns and labels:
[1] = test system: human retinal endothelial cells (HRECs); test: Identification of receptor of midazolam through ROS concentration analysis; type: cell-based; conditions: 0-50 μM flumazenil or 0-30 μM PK11195 1 hr, then 20 μM midazolam 30 min, then 10 ng/ml VEGF (FIG. 10B)
Protocol: With reference to FIG. 10A, the HRECs of Test Example 1 were subjected to the respective treatments below, cultured for 10 min, treated with 10 μM H2DCFDA, stained for 10 min in a phenol-red-free low-serum medium, and measured using confocal microscopy to thus determine the fluorescence intensity of single cells.
(§1) As will be described below, flumazenil was used as a GABAA receptor antagonist and PK11195 was used as a TSOP receptor antagonist.
With reference to FIG. 10B, the HRECs of Test Example 1 were treated with 0 μM, 0.01 μM, 0.1 μM, 1 μM, 10 μM, 20 μM, and 50 μM flumazenil and 0 μM, 0.01 μM, 0.1 μM, 1 μM, 3 μM, 10 μM, and 30 μM PK11195, cultured for 1 hr, treated with 20 μM midazolam, cultured for 30 min, treated with 10 ng/ml VEGF, incubated for 10 min, treated with 10 μM H2DCFDA, stained for 10 min in a phenol-red-free low-serum medium, and then measured using confocal microscopy to thus determine the fluorescence intensity of single cells.

[2] = test system: retinal vessels of diabetic mice; test: Fluorescein angiography for mouse model (retinal vascular leakage); type: in vivo, C57BL/6 mice; conditions: intravitreal 3 μL of 0.4 mM flumazenil in two administrations and 2 μL of 2 mM midazolam, group excluded from those without significant increase
TGase [3] = test: Identification of receptor of midazolam through TGase activity analysis; type: cell-based, human; conditions: HRECs, 0-50 μM flumazenil or 0-30 μM PK11195 1 hr, then 20 μM midazolam 30 min, then 10 ng/ml VEGF (FIG. 11B)
Protocol: With reference to FIG. 11A, the HRECs of Test Example 1 were subjected to the respective treatments below, cultured for 2 hr, treated with 1 mM 5-(biotinamido)pentylamine, incubated for 1 hr, fixed with 3.7% formaldehyde, treated with 0.2% triton X-100, treated with a blocking solution containing 138 mM NaCl, 0.1% Tween 20 and 2% BSA dissolved in a 20 mM Tris (pH 7.6) buffer, incubated for 30 min, incubated with FITC-conjugated streptavidin (1:200, v/v) for 1 hr, and then measured using confocal microscopy to thus determine the fluorescence intensity of single cells.
as §1
With reference to FIG. 11B, the HRECs of Test Example 1 were treated with 0 μM, 0.01 μM, 0.1 μM, 1 μM, 10 μM, 20 μM, and 50 μM flumazenil and 0 μM, 0.01 μM, 0.1 μM, 1 μM, 3 μM, 10 μM, and 30 μM PK11195, cultured for 1 hr, treated with 20 μM midazolam, cultured for 30 min, treated with 10 ng/ml VEGF, incubated for 10 min, treated with 1 mM 5-(biotinamido)pentylamine, incubated for 1 hr, fixed with 3.7% formaldehyde, treated with 0.2% triton X-100, treated with a blocking solution containing 138 mM NaCl, 0.1% Tween 20 and 2% BSA dissolved in a 20 mM Tris (pH 7.6) buffer, incubated for 30 min, incubated with FITC-conjugated streptavidin (1:200, v/v) for 1 hr, and then measured using confocal microscopy to thus determine the fluorescence intensity of single cells.

TGase [4] = test: Analysis of TGase activity in retinas of diabetic mouse model; type: in vivo, C57BL/6 mice; conditions: intravitreal 3 μL of 0.4 mM flumazenil in two administrations and 2 μL of 2 mM midazolam, group excluded from those without significant increase
Protocol: 6-week-old male C57BL/6 mice (DBL, EumSeong, Korea) were administered with streptozotocin (Sigma-Aldrich) dissolved in a 100 mM citrate buffer (pH 4.5) through intraperitoneal injection in an amount of 150 mg each per kg of mouse weight to give diabetic mouse models. In the diabetic mouse models, the blood glucose level was 19 mM or more when not fasting, and polyuria and diabetes, considered signs of diabetes, were observed. […]
48 μL of 100 mM 5-(biotinamido)pentylamine was injected into the left ventricle of each of normal mice (Normal), midazolam-administered normal mice (Midazolam), diabetic mice (Diabetic), midazolam-administered diabetic mice (Diabetic+Midazolam), flumazenil- and midazolam-administered diabetic mice (Diabetic+flumazenil+Midazolam), cystamine-administered diabetic mice (Diabetic+cystamine) and MDC-administered diabetic mice (Diabetic+MDC) and circulated for 10 min, after which cervical dislocation was performed, and the eyeballs were extracted, fixed with 4% paraformaldehyde for 45 min, incised and subjected to permeation treatment for 30 min. The obtained retinal samples were incubated with a blocking solution for 30 min, treated with FITC-conjugated streptavidin (1:200, v/v), stained for 1 hr, and measured using confocal microscopy. […]

For `CCOC(=O)c1ncn2c1CN(C)C(=O)c1cc(F)ccc1-2` [flumazenil], the “ROS concentration in midazolam- and VEGF-treated cells after receptor antagonist” value [1] was “an increase in ROS concentration with an increase in flumazenil concentration”, the “retinal vascular leakage compared to normal mice, flumazenil given with midazolam” value [2] was “excluding the diabetic mice (Diabetic) and the flumazenil- and midazolam-administered diabetic mice” and the “TGase activity in midazolam- and VEGF-treated cells after receptor antagonist” value (TGase [3]) was “an increase in TGase activity with an increase in flumazenil concentration”. For the same compound, the “TGase activity in retina compared to normal mice, flumazenil given with midazolam” value (TGase [4]) was “excluding the diabetic mice (Diabetic) and the flumazenil- and midazolam-administered diabetic mice”.
